Experimental data reported in ChEMBL document CHEMBL3885881, “DrugMatrix”.

Organism: Rattus norvegicus
Assay: DrugMatrix - Regimen: Daily Repeat
Type: toxicity, organism-based, Sprague-Dawley
Set-up: regimen Daily Repeat, gender Male, age 6-8 weeks
Settings: in vivo, po, route oral GAVAGE, vehicle 100 % WATER; for ABSOLUTE BASOPHIL / ABSOLUTE EOSINOPHIL / ABSOLUTE LYMPHOCYTE / ABSOLUTE MONOCYTE / ABSOLUTE SEGMENTED NEUTROPHIL / BASOPHIL / EOSINOPHIL / ERYTHROCYTE COUNT / HEMATOCRIT / HEMOGLOBIN / LEUKOCYTE COUNT / LYMPHOCYTE / MEAN CORPUSCULAR HEMOGLOBIN / MEAN CORPUSCULAR HEMOGLOBIN CONCENTRATION / MEAN CORPUSCULAR VOLUME / MONOCYTE / NEUTROPHIL / NUCLEATED RED BLOOD CELLS / PLATELET COUNT: tissue Blood; for ALANINE AMINOTRANSFERASE / ALBUMIN / ALKALINE PHOSPHATASE / ASPARTATE AMINOTRANSFERASE / BLOOD UREA NITROGEN / CARBON DIOXIDE / CHLORIDE / CHOLESTEROL / CREATINE PHOSPHOKINASE / CREATININE / GLUCOSE / LACTATE DEHYDROGENASE / LIPASE / PHOSPHORUS / POTASSIUM / SODIUM / TOTAL BILIRUBIN / TOTAL PROTEIN / URIC ACID: tissue Plasma
[1] = 20 mg/kg, 72 h, dose level Low, time 3 day
[2] = 20 mg/kg, 120 h, dose level Low, time 5 day
[3] = 266 mg/kg, 72 h, dose level High, time 3 day
[4] = 266 mg/kg, 120 h, dose level High, time 5 day

SMILES: O=C(NCCN1CCOCC1)c1ccc(Cl)cc1 [MOCLOBEMIDE]
- ABSOLUTE BASOPHIL [1]: 0 CELLS/uL
- ABSOLUTE EOSINOPHIL [1]: 175 CELLS/uL
- ABSOLUTE LYMPHOCYTE [1]: 12157.33 CELLS/uL
- ABSOLUTE MONOCYTE [1]: 176.67 CELLS/uL
- ABSOLUTE SEGMENTED NEUTROPHIL [1]: 691 CELLS/uL
- BASOPHIL [1]: 0%
- EOSINOPHIL [1]: 1%
- ERYTHROCYTE COUNT [1]: 5.68 x10E6/uL
- HEMATOCRIT [1]: 34.7%
- HEMOGLOBIN [1]: 13.23 G/DL
- LEUKOCYTE COUNT [1]: 13.2 x10E3/uL
- LYMPHOCYTE [1]: 92.33%
- MEAN CORPUSCULAR HEMOGLOBIN [1]: 23.33 pg
- MEAN CORPUSCULAR HEMOGLOBIN CONCENTRATION [1]: 38.13 G/DL
- MEAN CORPUSCULAR VOLUME [1]: 61.13 fL
- MONOCYTE [1]: 1.33%
- NEUTROPHIL [1]: 5.33%
- NUCLEATED RED BLOOD CELLS [1]: 0 /100WBC
- PLATELET COUNT [1]: 1220 x10E3/uL
- ALANINE AMINOTRANSFERASE [1]: 54.33 u/L
- ALBUMIN [1]: 4.07 G/DL
- ALKALINE PHOSPHATASE [1]: 345 u/L
- ASPARTATE AMINOTRANSFERASE [1]: 110.33 u/L
- BLOOD UREA NITROGEN [1]: 17.33 mg/dL
- CARBON DIOXIDE [1]: 23.67 mmol/L
- CHLORIDE [1]: 102.67 MEQ/L
- CHOLESTEROL [1]: 74 mg/dL
- CREATINE PHOSPHOKINASE [1]: 379 u/L
- CREATININE [1]: 0.2 mg/dL
- GLUCOSE [1]: 174.67 mg/dL
- LACTATE DEHYDROGENASE [1]: 728 u/L
- LIPASE [1]: 9.67 u/L
- PHOSPHORUS [1]: 14.07 mg/dL
- POTASSIUM [1]: 6.99 MEQ/L
- SODIUM [1]: 145.9 MEQ/L
- TOTAL BILIRUBIN [1]: 0.2 mg/dL
- TOTAL PROTEIN [1]: 5.7 G/DL
- URIC ACID [1]: 2.03 mg/dL
- ABSOLUTE BASOPHIL [2]: 0 CELLS/uL
- ABSOLUTE EOSINOPHIL [2]: 0 CELLS/uL
- ABSOLUTE LYMPHOCYTE [2]: 15547 CELLS/uL
- ABSOLUTE MONOCYTE [2]: 117.33 CELLS/uL
- ABSOLUTE SEGMENTED NEUTROPHIL [2]: 1669 CELLS/uL
- BASOPHIL [2]: 0%
- EOSINOPHIL [2]: 0%
- ERYTHROCYTE COUNT [2]: 5.91 x10E6/uL
- HEMATOCRIT [2]: 36.73%
- HEMOGLOBIN [2]: 14.33 G/DL
- LEUKOCYTE COUNT [2]: 17.33 x10E3/uL
- LYMPHOCYTE [2]: 89.67%
- MEAN CORPUSCULAR HEMOGLOBIN [2]: 24.33 pg
- MEAN CORPUSCULAR HEMOGLOBIN CONCENTRATION [2]: 39 G/DL
- MEAN CORPUSCULAR VOLUME [2]: 62.4 fL
- MONOCYTE [2]: 0.67%
- NEUTROPHIL [2]: 9.67%
- NUCLEATED RED BLOOD CELLS [2]: 0 /100WBC
- PLATELET COUNT [2]: 1391.67 x10E3/uL
- ALANINE AMINOTRANSFERASE [2]: 57 u/L
- ALBUMIN [2]: 4.1 G/DL
- ALKALINE PHOSPHATASE [2]: 322.67 u/L
- ASPARTATE AMINOTRANSFERASE [2]: 96.67 u/L
- BLOOD UREA NITROGEN [2]: 15 mg/dL
- CARBON DIOXIDE [2]: 27.33 mmol/L
- CHLORIDE [2]: 101.33 MEQ/L
- CHOLESTEROL [2]: 70.67 mg/dL
- CREATINE PHOSPHOKINASE [2]: 318 u/L
- CREATININE [2]: 0.17 mg/dL
- GLUCOSE [2]: 156.67 mg/dL
- LACTATE DEHYDROGENASE [2]: 488 u/L
- LIPASE [2]: 9.67 u/L
- PHOSPHORUS [2]: 13.7 mg/dL
- POTASSIUM [2]: 6.88 MEQ/L
- SODIUM [2]: 145.17 MEQ/L
- TOTAL BILIRUBIN [2]: 0.17 mg/dL
- TOTAL PROTEIN [2]: 5.83 G/DL
- URIC ACID [2]: 1.63 mg/dL
- ABSOLUTE BASOPHIL [3]: 0 CELLS/uL
- ABSOLUTE EOSINOPHIL [3]: 201.33 CELLS/uL
- ABSOLUTE LYMPHOCYTE [3]: 17920 CELLS/uL
- ABSOLUTE MONOCYTE [3]: 282 CELLS/uL
- ABSOLUTE SEGMENTED NEUTROPHIL [3]: 1130 CELLS/uL
- BASOPHIL [3]: 0%
- EOSINOPHIL [3]: 0.67%
- ERYTHROCYTE COUNT [3]: 5.8 x10E6/uL
- HEMATOCRIT [3]: 36.67%
- HEMOGLOBIN [3]: 14.43 G/DL
- LEUKOCYTE COUNT [3]: 19.53 x10E3/uL
- LYMPHOCYTE [3]: 92%
- MEAN CORPUSCULAR HEMOGLOBIN [3]: 24.93 pg
- MEAN CORPUSCULAR HEMOGLOBIN CONCENTRATION [3]: 39.37 G/DL
- MEAN CORPUSCULAR VOLUME [3]: 63.27 fL
- MONOCYTE [3]: 1.33%
- NEUTROPHIL [3]: 6%
- NUCLEATED RED BLOOD CELLS [3]: 0 /100WBC
- PLATELET COUNT [3]: 1228 x10E3/uL
- ALANINE AMINOTRANSFERASE [3]: 45 u/L
- ALBUMIN [3]: 4.27 G/DL
- ALKALINE PHOSPHATASE [3]: 348 u/L
- ASPARTATE AMINOTRANSFERASE [3]: 85.67 u/L
- BLOOD UREA NITROGEN [3]: 15.67 mg/dL
- CARBON DIOXIDE [3]: 27 mmol/L
- CHLORIDE [3]: 102 MEQ/L
- CHOLESTEROL [3]: 91.67 mg/dL
- CREATINE PHOSPHOKINASE [3]: 407 u/L
- CREATININE [3]: 0.2 mg/dL
- GLUCOSE [3]: 135.33 mg/dL
- LACTATE DEHYDROGENASE [3]: 202.33 u/L
- LIPASE [3]: 9.67 u/L
- PHOSPHORUS [3]: 12.33 mg/dL
- POTASSIUM [3]: 5.98 MEQ/L
- SODIUM [3]: 144.7 MEQ/L
- TOTAL BILIRUBIN [3]: 0.13 mg/dL
- TOTAL PROTEIN [3]: 5.67 G/DL
- URIC ACID [3]: 1.47 mg/dL
- ABSOLUTE BASOPHIL [4]: 0 CELLS/uL
- ABSOLUTE EOSINOPHIL [4]: 57.67 CELLS/uL
- ABSOLUTE LYMPHOCYTE [4]: 16939.67 CELLS/uL
- ABSOLUTE MONOCYTE [4]: 123 CELLS/uL
- ABSOLUTE SEGMENTED NEUTROPHIL [4]: 946.33 CELLS/uL
- BASOPHIL [4]: 0%
- EOSINOPHIL [4]: 0.33%
- ERYTHROCYTE COUNT [4]: 6.33 x10E6/uL
- HEMATOCRIT [4]: 38.47%
- HEMOGLOBIN [4]: 15.33 G/DL
- LEUKOCYTE COUNT [4]: 18.07 x10E3/uL
- LYMPHOCYTE [4]: 93.67%
- MEAN CORPUSCULAR HEMOGLOBIN [4]: 24.23 pg
- MEAN CORPUSCULAR HEMOGLOBIN CONCENTRATION [4]: 39.87 G/DL
- MEAN CORPUSCULAR VOLUME [4]: 60.77 fL
- MONOCYTE [4]: 0.67%
- NEUTROPHIL [4]: 5.33%
- NUCLEATED RED BLOOD CELLS [4]: 0 /100WBC
- PLATELET COUNT [4]: 1501 x10E3/uL
- ALANINE AMINOTRANSFERASE [4]: 44 u/L
- ALBUMIN [4]: 4.3 G/DL
- ALKALINE PHOSPHATASE [4]: 312.33 u/L
- ASPARTATE AMINOTRANSFERASE [4]: 75.67 u/L
- BLOOD UREA NITROGEN [4]: 16 mg/dL
- CARBON DIOXIDE [4]: 26 mmol/L
- CHLORIDE [4]: 100.67 MEQ/L
- CHOLESTEROL [4]: 75.67 mg/dL
- CREATINE PHOSPHOKINASE [4]: 226.33 u/L
- CREATININE [4]: 0.15 mg/dL
- GLUCOSE [4]: 155.33 mg/dL
- LACTATE DEHYDROGENASE [4]: 246.67 u/L
- LIPASE [4]: 10.33 u/L
- PHOSPHORUS [4]: 12.43 mg/dL
- POTASSIUM [4]: 6.84 MEQ/L
- SODIUM [4]: 143.43 MEQ/L
- TOTAL BILIRUBIN [4]: 0.17 mg/dL
- TOTAL PROTEIN [4]: 6.2 G/DL
- URIC ACID [4]: 2.3 mg/dL
